Paper PMC12119672, “Development and evaluation of [^11C]DPA-813 and [^18F]DPA-814: novel TSPO PET tracers insensitive to human single nucleotide polymorphism rs6971” (European Journal of Nuclear Medicine and Molecular Imaging, 2025)

Legend:
nAChR (α4/β2) = molecular target: T1, nAChR (α4/β2) (Homo sapiens, UniProt P17787+P43681); experiment: Off-target screen, 10 µM single dose (Eurofins); conditions: read-out: % Binding Inhibition at 10 μM, nAChR (α4/β2)
T1 construct: purchased Eurofins Panlabs Discovery Services
T1 sequence (P43681 29-627 limits assumed): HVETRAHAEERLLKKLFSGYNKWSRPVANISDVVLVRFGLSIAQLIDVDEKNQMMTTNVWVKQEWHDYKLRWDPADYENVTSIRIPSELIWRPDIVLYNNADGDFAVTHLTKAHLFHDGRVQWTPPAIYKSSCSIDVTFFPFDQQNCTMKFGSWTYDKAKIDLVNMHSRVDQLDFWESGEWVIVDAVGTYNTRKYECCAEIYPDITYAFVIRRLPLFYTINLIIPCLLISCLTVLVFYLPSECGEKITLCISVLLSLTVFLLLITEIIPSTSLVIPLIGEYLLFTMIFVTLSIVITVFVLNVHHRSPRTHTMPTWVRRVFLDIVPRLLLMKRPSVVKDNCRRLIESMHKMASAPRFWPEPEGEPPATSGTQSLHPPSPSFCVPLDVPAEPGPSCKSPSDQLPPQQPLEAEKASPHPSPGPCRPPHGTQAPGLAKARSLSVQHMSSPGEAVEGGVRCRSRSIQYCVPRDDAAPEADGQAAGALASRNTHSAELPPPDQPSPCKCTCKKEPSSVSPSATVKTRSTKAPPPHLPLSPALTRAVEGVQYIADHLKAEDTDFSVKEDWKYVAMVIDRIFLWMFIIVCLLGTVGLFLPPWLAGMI
T1 sequence (P17787 26-502): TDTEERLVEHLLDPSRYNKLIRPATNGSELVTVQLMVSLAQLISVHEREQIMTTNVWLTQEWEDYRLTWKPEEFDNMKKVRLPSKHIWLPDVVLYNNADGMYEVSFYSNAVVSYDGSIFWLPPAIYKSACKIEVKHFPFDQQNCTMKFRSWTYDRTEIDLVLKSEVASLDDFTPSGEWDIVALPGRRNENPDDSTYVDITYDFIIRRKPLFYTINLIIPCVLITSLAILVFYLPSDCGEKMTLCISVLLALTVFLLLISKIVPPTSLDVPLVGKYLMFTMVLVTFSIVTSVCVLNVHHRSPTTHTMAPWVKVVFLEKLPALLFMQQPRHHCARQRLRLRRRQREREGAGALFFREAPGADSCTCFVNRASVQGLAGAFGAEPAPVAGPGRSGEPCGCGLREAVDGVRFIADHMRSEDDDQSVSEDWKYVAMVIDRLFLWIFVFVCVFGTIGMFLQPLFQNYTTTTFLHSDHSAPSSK
Protocol: (§1) Binding affinities (Ki) to wild-type (WT) and A147T human TSPO were assessed using a previously published method. HEK-293T cells were stably transfected with WT and A147T TSPO. Membranes were isolated from each cell line using an Ultra-Turrax hand-held homogeniser. These cells have been previously validated as an in vitro model for low- and high-affinity TSPO binding. […] Non-specific binding was determined using a saturating concentration (1 µM) of non-tritiated PK 11195. This non-specific binding contributed less than 10% of total binding. Reactions were halted by filtering through a 96-well glass-fibre filter plate (Millipore), followed by eight washes with ice-cold 50 mM Tris HCl. Microscint 0 was added to the plate and resultant radioactivity-related photons were collected by a Microbeta 2450 (PerkinElmer). Ki values were fit to a competition binding curve fit on non-specific binding-corrected data using GraphPad Prism 10.0 (GraphPad). Results are presented as mean ± standard error of the mean (SEM) from at least three independent experiments. Binding affinities (Ki) to rat TSPO were measured in duplicate by Eurofins Panlabs Discovery Services (assay #226700) (Supplementary Fig. 12). Single-dose (10 µM) off-target in vitro screening was performed in duplicate by Eurofins Panlabs Discovery Services (Supplementary Table 5).
(§2) Supplementary Table 5. Off-target binding to common CNS targets. 10 μM single dose (n = 2) screen performed by Eurofins Panlabs Discovery. ^a All targets are human receptors. ^b Inhibition of antagonist radioligand binding. ^c Inhibition of agonist radioligand binding. ^d Enzymatic functional readout.

D2L = molecular target: T2, D2L (Homo sapiens, UniProt P14416); experiment: Off-target screen, 10 µM single dose (Eurofins); conditions: read-out: % Binding Inhibition at 10 μM, D2L
T2 construct: purchased Eurofins Panlabs Discovery Services
T2 sequence (P14416 whole entry): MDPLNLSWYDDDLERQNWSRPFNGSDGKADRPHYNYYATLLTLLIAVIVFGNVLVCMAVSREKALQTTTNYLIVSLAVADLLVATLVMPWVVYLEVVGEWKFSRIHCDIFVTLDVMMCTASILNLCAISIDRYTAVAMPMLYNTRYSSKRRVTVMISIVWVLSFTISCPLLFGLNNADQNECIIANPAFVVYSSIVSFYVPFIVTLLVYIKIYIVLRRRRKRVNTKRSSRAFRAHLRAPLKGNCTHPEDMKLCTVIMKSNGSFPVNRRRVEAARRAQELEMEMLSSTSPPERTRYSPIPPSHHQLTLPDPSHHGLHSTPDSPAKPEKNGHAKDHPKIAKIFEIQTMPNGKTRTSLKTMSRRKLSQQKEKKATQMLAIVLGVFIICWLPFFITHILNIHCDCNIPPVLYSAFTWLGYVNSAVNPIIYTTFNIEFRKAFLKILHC
Protocol: as §1, §2

β2 Adrenergic receptor = molecular target: T3, β2 Adrenergic receptor (Homo sapiens, UniProt P07550); experiment: Off-target screen, 10 µM single dose (Eurofins); conditions: read-out: % Binding Inhibition at 10 μM, β2 Adrenergic receptor
T3 construct: purchased Eurofins Panlabs Discovery Services
T3 sequence (P07550 whole entry): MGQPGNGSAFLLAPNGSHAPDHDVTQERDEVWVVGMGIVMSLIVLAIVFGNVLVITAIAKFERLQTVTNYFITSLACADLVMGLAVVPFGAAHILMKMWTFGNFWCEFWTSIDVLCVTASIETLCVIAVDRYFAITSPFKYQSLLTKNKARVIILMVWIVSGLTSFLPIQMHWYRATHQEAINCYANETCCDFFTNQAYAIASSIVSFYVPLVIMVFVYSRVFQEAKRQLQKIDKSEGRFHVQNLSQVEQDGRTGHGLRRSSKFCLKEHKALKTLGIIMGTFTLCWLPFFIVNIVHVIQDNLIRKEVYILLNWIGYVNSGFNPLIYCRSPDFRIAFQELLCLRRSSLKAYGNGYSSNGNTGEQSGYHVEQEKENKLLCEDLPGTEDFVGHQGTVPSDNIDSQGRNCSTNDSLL
Protocol: as §1, §2

SERT = molecular target: T4, SERT (Homo sapiens, UniProt P31645); experiment: Off-target screen, 10 µM single dose (Eurofins); conditions: read-out: % Binding Inhibition at 10 μM, SERT
T4 construct: purchased Eurofins Panlabs Discovery Services
Protocol: as §1, §2

M1 = molecular target: T5, M1 (Homo sapiens, UniProt P11229); experiment: Off-target screen, 10 µM single dose (Eurofins); conditions: read-out: % Binding Inhibition at 10 μM, M1
T5 construct: purchased Eurofins Panlabs Discovery Services
Protocol: as §1, §2

5-HT2B = molecular target: T6, 5-HT2B (Homo sapiens, UniProt P41595); experiment: Off-target screen, 10 µM single dose (Eurofins); conditions: read-out: % Binding Inhibition at 10 μM, 5-HT2B
T6 construct: purchased Eurofins Panlabs Discovery Services
T6 sequence (P41595 whole entry): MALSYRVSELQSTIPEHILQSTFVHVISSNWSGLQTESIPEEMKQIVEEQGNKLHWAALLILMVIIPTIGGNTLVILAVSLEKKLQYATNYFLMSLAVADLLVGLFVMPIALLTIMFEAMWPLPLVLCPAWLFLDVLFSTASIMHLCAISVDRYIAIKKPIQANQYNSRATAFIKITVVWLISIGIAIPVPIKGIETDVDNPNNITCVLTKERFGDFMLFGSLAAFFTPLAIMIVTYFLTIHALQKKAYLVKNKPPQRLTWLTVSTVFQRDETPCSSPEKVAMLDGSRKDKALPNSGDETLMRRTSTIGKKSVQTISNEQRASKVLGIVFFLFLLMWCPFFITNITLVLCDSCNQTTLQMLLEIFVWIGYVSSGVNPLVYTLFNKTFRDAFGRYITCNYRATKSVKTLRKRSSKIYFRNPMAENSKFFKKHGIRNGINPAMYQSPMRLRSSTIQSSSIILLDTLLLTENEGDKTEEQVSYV
Protocol: as §1, §2

MOP = molecular target: T7, MOP (Homo sapiens, UniProt P35372); experiment: Off-target screen, 10 µM single dose (Eurofins); conditions: read-out: % Binding Inhibition at 10 μM, MOP
T7 construct: purchased Eurofins Panlabs Discovery Services
T7 sequence (P35372 whole entry): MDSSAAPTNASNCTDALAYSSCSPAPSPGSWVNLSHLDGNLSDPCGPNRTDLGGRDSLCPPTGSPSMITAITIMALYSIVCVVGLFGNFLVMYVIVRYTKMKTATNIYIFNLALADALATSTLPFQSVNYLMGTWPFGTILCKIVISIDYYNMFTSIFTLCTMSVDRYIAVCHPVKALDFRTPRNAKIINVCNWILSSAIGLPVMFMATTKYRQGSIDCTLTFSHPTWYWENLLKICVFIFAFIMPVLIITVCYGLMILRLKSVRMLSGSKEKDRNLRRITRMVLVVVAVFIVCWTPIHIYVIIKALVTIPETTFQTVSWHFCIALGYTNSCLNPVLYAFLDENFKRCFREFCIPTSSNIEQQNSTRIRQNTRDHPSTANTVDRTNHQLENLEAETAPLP
Protocol: as §1, §2

CB2 = molecular target: T8, CB2 (Homo sapiens, UniProt P34972); experiment: Off-target screen, 10 µM single dose (Eurofins); conditions: read-out: % Binding Inhibition at 10 μM, CB2
T8 construct: purchased Eurofins Panlabs Discovery Services
Protocol: as §1, §2

DAT = molecular target: T9, DAT (Homo sapiens, UniProt Q01959); experiment: Off-target screen, 10 µM single dose (Eurofins); conditions: read-out: % Binding Inhibition at 10 μM, DAT
T9 construct: purchased Eurofins Panlabs Discovery Services
T9 sequence (Q01959 whole entry): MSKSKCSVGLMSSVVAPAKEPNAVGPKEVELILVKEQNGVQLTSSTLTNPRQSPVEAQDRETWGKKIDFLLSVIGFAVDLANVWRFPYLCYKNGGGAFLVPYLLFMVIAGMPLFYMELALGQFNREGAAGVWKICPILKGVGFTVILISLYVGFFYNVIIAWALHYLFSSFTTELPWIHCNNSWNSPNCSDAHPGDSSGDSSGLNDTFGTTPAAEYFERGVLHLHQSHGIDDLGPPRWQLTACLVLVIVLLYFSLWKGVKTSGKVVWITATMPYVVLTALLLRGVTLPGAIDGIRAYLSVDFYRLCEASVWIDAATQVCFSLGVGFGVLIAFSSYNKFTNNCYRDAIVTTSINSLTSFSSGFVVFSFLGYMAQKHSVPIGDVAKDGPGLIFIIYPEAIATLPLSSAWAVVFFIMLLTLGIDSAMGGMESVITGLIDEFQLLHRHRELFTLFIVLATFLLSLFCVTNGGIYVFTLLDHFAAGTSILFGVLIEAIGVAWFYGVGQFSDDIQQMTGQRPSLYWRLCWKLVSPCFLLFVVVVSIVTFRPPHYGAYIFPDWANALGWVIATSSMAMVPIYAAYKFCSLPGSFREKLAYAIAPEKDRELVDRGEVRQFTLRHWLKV
Protocol: as §1, §2

NET = molecular target: T10, NET (Homo sapiens, UniProt P23975); experiment: Off-target screen, 10 µM single dose (Eurofins); conditions: read-out: % Binding Inhibition at 10 μM, NET
T10 construct: purchased Eurofins Panlabs Discovery Services
T10 sequence (P23975 whole entry): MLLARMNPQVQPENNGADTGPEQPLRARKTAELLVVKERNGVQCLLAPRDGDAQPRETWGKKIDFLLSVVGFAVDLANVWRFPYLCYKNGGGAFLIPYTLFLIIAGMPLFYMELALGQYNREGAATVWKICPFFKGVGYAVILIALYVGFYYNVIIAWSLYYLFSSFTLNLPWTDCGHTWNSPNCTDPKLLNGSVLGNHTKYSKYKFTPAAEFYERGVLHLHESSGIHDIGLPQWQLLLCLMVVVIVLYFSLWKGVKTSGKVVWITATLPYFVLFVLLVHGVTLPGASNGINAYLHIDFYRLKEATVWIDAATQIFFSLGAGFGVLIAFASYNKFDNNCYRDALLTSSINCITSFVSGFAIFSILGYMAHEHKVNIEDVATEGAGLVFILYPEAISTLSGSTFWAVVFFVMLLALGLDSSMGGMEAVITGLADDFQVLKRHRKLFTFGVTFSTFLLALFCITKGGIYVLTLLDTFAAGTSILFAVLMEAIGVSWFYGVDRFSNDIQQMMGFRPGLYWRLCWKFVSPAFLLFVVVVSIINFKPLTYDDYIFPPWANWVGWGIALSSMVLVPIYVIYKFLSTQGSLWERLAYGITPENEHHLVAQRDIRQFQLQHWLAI
Protocol: as §1, §2

D1 = molecular target: T11, D1 (Homo sapiens, UniProt P21728); experiment: Off-target screen, 10 µM single dose (Eurofins); conditions: read-out: % Binding Inhibition at 10 μM, D1
T11 construct: purchased Eurofins Panlabs Discovery Services
Protocol: as §1, §2

5-HT2A = molecular target: T12, 5-HT2A (Homo sapiens, UniProt P28223); experiment: Off-target screen, 10 µM single dose (Eurofins); conditions: read-out: % Binding Inhibition at 10 μM, 5-HT2A
T12 construct: purchased Eurofins Panlabs Discovery Services
Protocol: as §1, §2

CB1 = molecular target: T13, CB1 (Homo sapiens, UniProt P21554); experiment: Off-target screen, 10 µM single dose (Eurofins); conditions: read-out: % Binding Inhibition at 10 μM, CB1
T13 construct: purchased Eurofins Panlabs Discovery Services
Protocol: as §1, §2

A147T human TSPO = molecular target: T14, A147T human TSPO (Homo sapiens, UniProt P30536); experiment: Competition radioligand binding vs [3H]PK 11195, membranes of transfected HEK-293T cells (A147T TSPO); conditions: for increase in affinity to A147T TSPO versus parent compound: DPA-813 vs DPA-713, DPA-814 vs DPA-714; for Ki: vs [3H]PK 11195 (10 nM), HEK-293T membranes, mean ± SEM, read-out: Ki A147T hTSPO
T14 construct: expressed in transfected cells
T14 sequence (P30536 whole entry, stated change not applied): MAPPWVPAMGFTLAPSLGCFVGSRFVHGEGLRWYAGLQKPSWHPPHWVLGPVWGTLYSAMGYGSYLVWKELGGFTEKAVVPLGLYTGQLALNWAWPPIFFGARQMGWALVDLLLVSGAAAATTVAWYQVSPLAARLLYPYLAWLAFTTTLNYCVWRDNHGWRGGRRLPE
Protocol: as §1
(§3) In vitro binding affinities (Ki) for human TSPO were initially assessed using a competition radioligand assay against [^3H]PK 11195 in our well-characterised assay using membranes isolated from transfected HEK-293T cells overexpressing either WT or A147T TSPO [32]. This structure-activity relationship study will be reported in a separate publication. […] Data for DPA-713 and DPA-714 are included for comparison.

MAO-B = molecular target: T15, MAO-B (Homo sapiens, UniProt P27338); experiment: Off-target screen, 10 µM single dose (Eurofins), enzymatic functional readout; type: biochemical; conditions: n = 2, read-out: % Binding Inhibition at 10 μM, MAO-B
T15 construct: purchased Eurofins Panlabs Discovery Services
T15 sequence (P27338 whole entry): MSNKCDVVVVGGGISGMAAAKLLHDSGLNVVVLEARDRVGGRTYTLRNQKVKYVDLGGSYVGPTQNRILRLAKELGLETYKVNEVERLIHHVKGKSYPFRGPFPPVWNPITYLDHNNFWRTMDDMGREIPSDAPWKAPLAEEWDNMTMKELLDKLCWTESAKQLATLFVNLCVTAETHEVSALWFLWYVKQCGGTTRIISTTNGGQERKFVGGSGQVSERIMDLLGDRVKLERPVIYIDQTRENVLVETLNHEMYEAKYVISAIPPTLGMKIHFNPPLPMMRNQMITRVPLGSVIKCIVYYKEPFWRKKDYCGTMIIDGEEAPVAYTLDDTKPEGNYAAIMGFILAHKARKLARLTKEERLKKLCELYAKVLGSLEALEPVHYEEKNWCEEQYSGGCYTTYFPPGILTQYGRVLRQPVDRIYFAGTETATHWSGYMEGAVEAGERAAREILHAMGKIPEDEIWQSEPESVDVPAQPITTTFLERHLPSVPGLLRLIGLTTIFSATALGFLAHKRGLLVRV
Protocol: as §1, with “Results are presented as mean ± standard error of the mean (SEM) from at least three independent experiments.” left out, “Single-dose (10 µM) off-target in vitro screening was performed in duplicate by Eurofins Panlabs Discovery Services (Supplementary Table 5).” left out
(§4) Supplementary Table 5. […] 10 μM single dose (n = 2) screen performed by Eurofins Panlabs Discovery. ^a All targets are human receptors. ^b Inhibition of antagonist radioligand binding. ^c Inhibition of agonist radioligand binding. ^d Enzymatic functional readout.

[1] = tested on: Central Benzodiazepine Receptor; experiment: Off-target screen, 10 µM single dose (Eurofins); parameters: species or system human; conditions: n = 2, inhibition of agonist radioligand binding
Protocol: as §1, with “Results are presented as mean ± standard error of the mean (SEM) from at least three independent experiments.” left out, “Single-dose (10 µM) off-target in vitro screening was performed in duplicate by Eurofins Panlabs Discovery Services (Supplementary Table 5).” left out
as §4

[2] = Lipophilicity (logD at pH 7.4) by gradient HPLC; type: physicochemical; conditions: gradient HPLC retention correlated with standard compounds; pH 7.4, gradient HPLC; read-out: logD7.4
Text: Partition coefficient values (logD) were estimated at pH 7.4 by correlating chromatographic retention properties against the characteristics of a series of standard compounds with known partition coefficient values. The method employed a gradient HPLC based on a previously published method.

rat TSPO = molecular target: T16, rat TSPO (Rattus norvegicus, UniProt P16257); experiment: Competitive binding to rat TSPO vs [3H]PK 11195 (Eurofins assay #226700, rat heart membranes); conditions: vs [3H]PK 11195, result in words
T16 construct: Heart of male Wistar derived rats weighing 175 ± 25 g are used to prepare peripheral benzodiazepine membrane receptors [TSPO]; tissue Eurofins Panlabs Discovery Services assay #226700; host or cells: rat heart (male Wistar derived)
Protocol: as §1
Supplementary Figure 12 Dose-response curves and binding affinities of DPA-813 and DPA-814 showing competitive binding to rat TSPO vs [^3H]PK 11195. Method from Eurofins: Heart of male Wistar derived rats weighing 175 ± 25 g are used to prepare peripheral benzodiazepine membrane receptors [TSPO] in modified Tris-HCl buffer pH 7.5. A 0.25 mg aliquot is incubated with 0.3 nM [^3H]PK 11195 for 15 minutes at 25 °C. Non-specific binding is estimated in the presence of 100 μM Dipyridamole. Membranes are filtered and washed, the filters are then counted to determine [^3H]PK 11195 specifically bound.

WT human TSPO [3] = molecular target: T17, WT human TSPO (Homo sapiens, UniProt P30536, T147A); experiment: Competition radioligand binding vs [3H]PK 11195, membranes of transfected HEK-293T cells (WT TSPO); conditions: DPA-813 vs DPA-713; DPA-814 vs DPA-714
T17 construct: expressed in transfected cells
T17 sequence (P30536 whole entry T147A): as the sequence (P30536 whole entry, stated change not applied) above, with T147A counted along it
Protocol: as §1, §3

WT human TSPO [4] = molecular target: T18, WT human TSPO (Homo sapiens, UniProt P30536); experiment: as above; conditions: vs [3H]PK 11195 (10 nM), HEK-293T membranes, mean ± SEM; read-out: Ki WT hTSPO
T18 construct: expressed in transfected cells
T18 sequence (P30536 whole entry T147A): as the sequence (P30536 whole entry, stated change not applied) above, with T147A counted along it
Protocol: as §1, §3

A147T TSPO = tested on: A147T TSPO; parameters: method as in PMID 30900397; conditions: cited from earlier work

Structure (SMILES) | inhibition at 10 µM (nAChR (α4/β2)) | inhibition at 10 µM (D2L) | inhibition at 10 µM (β2 Adrenergic receptor) | inhibition at 10 µM (SERT) | inhibition at 10 µM (M1) | inhibition at 10 µM (5-HT2B) | inhibition at 10 µM (MOP) | inhibition at 10 µM (CB2) | inhibition at 10 µM (DAT) | inhibition at 10 µM (NET) | inhibition at 10 µM (D1) | inhibition at 10 µM (5-HT2A) | inhibition at 10 µM (CB1) | increase in affinity to A147T TSPO versus parent compound (A147T human TSPO) | Ki (A147T human TSPO) | inhibition at 10 µM (MAO-B) | % Binding Inhibition at 10 μM, Central Benzodiazepine Receptor [1] | chromatographic logD [2] | binding affinity to rat TSPO (rat TSPO) | increase in affinity to WT TSPO versus parent compound (WT human TSPO [3]) | also measured
COc1ccc(-c2nn3c(C)cc(C)nc3c2CC(=O)N(C)c2ccccc2)cc1 [DPA-813] | 4% | 10% | -1% | 4% | -13% | 25% | 15% | -16% | 10% | 3% | 13% | 1% | 4% | ~ 32 fold | 3.1 ± 0.9 nM | 10% | 51% | 3.6 | subnanomolar | ~ 3 fold | Ki (WT human TSPO [4]): 6.2 ± 1.9 nM
Cc1cc(C)n2nc(-c3ccc(OCCF)cc3)c(CC(=O)N(C)c3ccccc3)c2n1 [DPA-814] | 1% | 11% | 0% | 2% | -14% | 30% | 24% | -22% | 7% | 4% | 24% | 4% | -6% | 46 fold | 5.7 ± 1.8 nM | 47% | 18% | 3.7 | subnanomolar | 3 fold | Ki (WT human TSPO [4]): 7.3 ± 0.5 nM
CCN(CC)C(=O)[C@H]1CCCc2c1c1c(OC)cccc1n2CC[18F] [[^18F]GE180] | – | – | – | – | – | – | – | – | – | – | – | – | – | – | – | – | – | – | – | – | reduction in affinity for A147T TSPO in vitro (A147T TSPO): 5 fold
